The results in this text go back to patent US6506936B1, “N-substituted arylsulfonylamino hydroxamic acids useful as inhibitors of c-proteinase and for treating or preventing disorders related to unregulated collagen production” (FibroGen, Inc., priority 1999, dated 2003).

The data set relates to human foreskin fibroblasts. The experiment in a line: Cytotoxicity: metabolic activity (WST-1) of quiescent fibroblasts exposed to inhibitor. Particulars: 25 μM compound, 0.5% DMSO, 48 hours, 60% or below = very sick or dead. Type of data set: cell-based. The protocol: C-proteinase inhibitors were studied in cytotoxicity assays wherein quiescent cells were exposed to C-proteinase inhibitors for a given time and cell viability measured. By examining cellular metabolic activity, cell viability and cell survival were determined.
C-proteinase inhibitors were tested on human foreskin fibroblasts that had been grown to confluence in 96 well microtiter plates in Dulbecco's Modified Eagle Medium (DMEM) containing 10% fetal calf serum. Shortly before adding the inhibitors, the media was removed and 90 μl per microtiter well of fresh serum-free DMEM was added to the cells. The C-proteinase inhibitors were made up as concentrated stocks containing compound at 250 μM in the presence of 5% DMSO as solvent. A concentrated stock of 10 μl was added to each microtiter well to give a final compound concentration of 25 μM in the presence of 0.5% DMSO. The cells were incubated in the presence of the C-proteinase inhibitor for 48 hours, and then cell viability and survival were measured as a function of metabolic activity. To examine cellular metabolic activity, 10 μl of WST-1 reagent (Boehringer Mannheim) was added to each well of a 96 well microtiter plate containing quiescent cells that were already in media. The plate was incubated at 37° C. for 120 minutes and removed. The absorbance at 450 nm-650 nm was recorded. […] Controls included untreated healthy cells, and cells killed with 0.1% saponin.
Cytotoxicity was evaluated as a function of cellular survival. Cellular survival was determined by measuring the metabolic activity of the quiescent cells after exposure to the C-proteinase inhibitors. To determine the metabolic activity of the cells, the color change of a trazolium dye over time was examined according to Mossmann, […], Immunol. Methods 65:66; Carmichael, 1987, Cancer Res 47:936, incorporated herein by reference. Healthy cells cleaved the dye producing a colored product that can be quantitated. […] Dead cells had no metabolic activity and no effect on the dye was shown.
The amount of dye cleaved by cells that had been incubated with inhibitor, expressed as a percentage relative to untreated cells, is shown in TABLE 2. Cells that register at 60% or below are considered either very sick or dead. Control cells that were intentionally killed give a value of close to 20%.
(Formazan colour is commonly taken as a measure of viable cells.)
Take `N/C(=N\O)c1ccc(S(=O)(=O)N(CCC(=O)NO)Cc2ccc3c(c2)OCO3)cc1` [Compound 1369]: the “Percent Metabolic Activity of Fibroblasts Exposed To Various C-Proteinase Inhibitors Relative to Untreated Fibroblasts” value was found to be 117.1%.

As for `COc1ccc(S(=O)(=O)N(CCC(=O)NO)Cc2ccc3c(c2)OCO3)cc1OC` [Compound 1410], the “Percent Metabolic Activity of Fibroblasts Exposed To Various C-Proteinase Inhibitors Relative to Untreated Fibroblasts” value is on record as 108.6%.

`COc1ccc(CCN(CCC(=O)NO)S(=O)(=O)c2cccc(/C(N)=N/O)c2)cc1` [Compound 1456]: the “Percent Metabolic Activity of Fibroblasts Exposed To Various C-Proteinase Inhibitors Relative to Untreated Fibroblasts” value is on record as 106.8%.

In the case of `COc1ccccc1CCN(CCC(=O)NO)S(=O)(=O)c1ccc(C(=O)O)cc1` [Compound 1405], the “Percent Metabolic Activity of Fibroblasts Exposed To Various C-Proteinase Inhibitors Relative to Untreated Fibroblasts” value worked out at 114.5%.

On to `CS(=O)(=O)c1ccc(S(=O)(=O)N(CCC(=O)NO)CCc2cccs2)cc1` [Compound 1463], for which the “Percent Metabolic Activity of Fibroblasts Exposed To Various C-Proteinase Inhibitors Relative to Untreated Fibroblasts” value is reported as 110.0%.

On to `COc1ccc(S(=O)(=O)N(CCC(=O)NO)C2C3CC4CC(C3)CC2C4)cc1` (stereo not shown) [Compound 1335], for which the “Percent Metabolic Activity of Fibroblasts Exposed To Various C-Proteinase Inhibitors Relative to Untreated Fibroblasts” value came to 113.3%.

As to `O=C(CCN(CCc1cccs1)S(=O)(=O)Cc1ccccc1)NO` [Compound 1414], the “Percent Metabolic Activity of Fibroblasts Exposed To Various C-Proteinase Inhibitors Relative to Untreated Fibroblasts” value amounted to 112.6%.

For `O=C(CCN(CCc1cccs1)S(=O)(=O)c1ccc(S(=O)(=O)c2ccccc2)s1)NO` [Compound 1419], the “Percent Metabolic Activity of Fibroblasts Exposed To Various C-Proteinase Inhibitors Relative to Untreated Fibroblasts” value is 104.7%.

Regarding `N/C(=N\O)c1ccc(S(=O)(=O)N(CCC(=O)NO)CCc2cccs2)cc1` [Compound 1409], the “Percent Metabolic Activity of Fibroblasts Exposed To Various C-Proteinase Inhibitors Relative to Untreated Fibroblasts” value is 108.8%.

For the compound `CS(=O)(=O)c1ccc(S(=O)(=O)N(CCC(=O)NO)Cc2ccc3c(c2)OCO3)cc1` [Compound 1464], the “Percent Metabolic Activity of Fibroblasts Exposed To Various C-Proteinase Inhibitors Relative to Untreated Fibroblasts” value was 111.0%.

As for `O=C(CCN(Cc1ccc2c(c1)OCO2)S(=O)(=O)c1ccc(Br)s1)NO` [Compound 1367], the “Percent Metabolic Activity of Fibroblasts Exposed To Various C-Proteinase Inhibitors Relative to Untreated Fibroblasts” value is on record as 114.5%.

For the compound `COc1ccc(S(=O)(=O)N(CCC(=O)NO)CCc2ccc(Cl)cc2)cc1` [Compound 1300], the “Percent Metabolic Activity of Fibroblasts Exposed To Various C-Proteinase Inhibitors Relative to Untreated Fibroblasts” value is recorded as 109.9%.

As for `O=C(CCN(Cc1ccc2c(c1)OCO2)S(=O)(=O)c1cccc2nsnc12)NO` [Compound 1362], the “Percent Metabolic Activity of Fibroblasts Exposed To Various C-Proteinase Inhibitors Relative to Untreated Fibroblasts” value came out at 119.4%.
